Results published in patent publication US7700576B2, “Pharmaceutical composition on basis of reverse transcriptase inhibitor and meldonium” (priority 2005, dated 2010).

What was measured:
mice = details: p.o. for mice; cited from earlier work
[1] = oral introduction; cited from earlier work
myocardium = system: myocardium; set-up: species or system mice; details: mouse, in vivo, ip
Protocol: The cardiotoxic action of Zidovudine and Meldonium pharmaceutical compositions was investigated by introducing them into male mice of initial mass 15.69±1.56 g during a fortnight. Throughout the experiment, the animals were kept in standard laboratory conditions at temperature of 22±0.5° C. and 12 hours light/darkness cycle, being fed with standard laboratory animal food. For the control group (n=6), 10 ml of 0.9% NaCl aqueous solution was intraperitoneally introduced daily (1st and 12th group). In a series of experiments, the following solutions were administered intraperitoneally for animal trial groups (including 6 mice each) daily. On the 15th day of the trial, the animals were decapitated, hearts were taken out and placed into 10% formalin solution. For immuno-histochemical research, organs were fixed in paraffin, and preparations of 4 μm thickness were sliced which were tinged according to the avidin-biotin immuno-histochemical method by use of DAKO LSAB reagent kit.

cerebral cortex neurons = experiment: Cerebral cortex neuron degenerative transformation (molecular and external granule layers); assay type: in vivo, mice; details: after a fortnight
Protocol: (§1) For this purpose in an experiment of analogous pattern, the experimental animals' neurological reactions were assessed after a fortnight. For this assessment, the common test of pain latent period in the tail compression model as well as the appraisal of cerebral cortex neuron degenerative transformation was made (molecular and external granule layers).

[2] = mouse, in vivo
Protocol: as §1

Compound	toxicity (mice)	bioavailability [1]	Histological changes of heart tissue (myocardium)	Increase in degenerated neurons of the cerebral cortex as compared with the control (cerebral cortex neurons)	Algesia (pain latent period, tail compression) [2]
C[N+](C)(C)NCCC(=O)[O-] [Meldonium, 3-(2,2,2-Trimethylhydrazinium) propionate]	more than 25,000 mg/kg	very high			
Cc1cn([C@H]2C=C[C@@H](CO)O2)c(=O)[nH]c1=O [Stavudine, 2′,3′-Didehydro-3′-deoxythymidine]			induces perivascular oedema, degeneration of myocardium adipose tissue and infiltration with leucocytes	3 fold	provokes significant algesia
Nc1ccn([C@@H]2CS[C@H](CO)O2)c(=O)n1 [Lamivudine, (2R-cis)-4-Amino-1-[2-(hydroxymethyl)-1,3-oxathiolan-5-yl]-2(IH)-pyrimidinone]				3 fold	provokes significant algesia
Cc1cn([C@H]2C[C@H](N=[N+]=[N-])[C@@H](CO)O2)c(=O)[nH]c1=O [AZT, 3′-Azido-3′-deoxythymidine]			induces perivascular oedema, degeneration of myocardium adipose tissue and infiltration with leucocytes	3 fold	provokes significant algesia
